Where two headings read alike, the source gives them in different places.

In the assay the target is T1, human type 1 glycine transporter (GlyT1) (Homo sapiens, UniProt P48067).
T1 construct: T98G cells (glioma cells) expressing human type 1 glycine transporter (GlyT1) were used; endogenous in cells; host or cells: T98G cells (human glioma cells)
T1 sequence (P48067 1-706): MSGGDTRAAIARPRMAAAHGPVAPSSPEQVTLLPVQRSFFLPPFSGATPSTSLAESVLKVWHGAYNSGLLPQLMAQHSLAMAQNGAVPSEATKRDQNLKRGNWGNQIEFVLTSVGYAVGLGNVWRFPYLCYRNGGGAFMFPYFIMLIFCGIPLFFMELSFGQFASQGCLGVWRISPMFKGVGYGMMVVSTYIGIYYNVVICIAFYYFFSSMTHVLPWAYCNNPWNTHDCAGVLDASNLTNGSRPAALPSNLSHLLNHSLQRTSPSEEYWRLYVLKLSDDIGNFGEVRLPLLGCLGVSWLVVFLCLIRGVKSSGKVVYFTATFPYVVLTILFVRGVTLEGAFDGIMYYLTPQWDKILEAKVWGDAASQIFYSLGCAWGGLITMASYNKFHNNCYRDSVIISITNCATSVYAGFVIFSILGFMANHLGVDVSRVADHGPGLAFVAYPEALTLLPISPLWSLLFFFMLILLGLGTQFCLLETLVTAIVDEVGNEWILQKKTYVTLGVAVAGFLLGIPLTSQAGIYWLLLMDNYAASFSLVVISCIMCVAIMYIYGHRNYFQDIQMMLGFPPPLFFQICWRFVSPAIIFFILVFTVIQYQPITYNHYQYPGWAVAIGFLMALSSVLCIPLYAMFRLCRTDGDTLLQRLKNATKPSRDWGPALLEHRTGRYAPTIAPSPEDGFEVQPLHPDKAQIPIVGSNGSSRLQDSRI
As to the kind of experiment: Glycine uptake inhibition experiment ([3H] glycine uptake in T98G cells expressing GlyT1). In kind it is cell-based. The protocol: Glycine Uptake Inhibition Experiment
A glycine uptake experiment was conducted in accordance with the method published in Neuron, 8, 927-935, 1992. In the experiment, T98G cells (glioma cells) expressing human type 1 glycine transporter (GlyT1) were used. The T98G cells were seeded in a 96-well plate at 2.0×10^4 cells/well and cultured overnight in a CO2 incubator. The test substance was dissolved in a 100% DMSO solution and then dissolved in a 10 mM HEPES buffer solution (pH 7.4) containing 150 mM sodium chloride, 1 mM calcium chloride, 5 mM potassium chloride, 1 mM magnesium chloride, 10 mM glucose and 0.2% bovine serum albumin. After removing the cell culture medium, the test substance was subjected to a 10-min pretreatment. Subsequently, the test substance and [^3H] glycine (final concentration: 250 nM) were added to the cells and reaction was performed at room temperature for 15 minutes. After the end of the reaction, the extracellular fluid was aspirated with a manifold to remove excess labeled glycine present outside the cells, and then the cells were lysed with a 0.5 M aqueous sodium hydroxide solution. The glycine content in the cells was determined by measuring the radioactivity in the cell lysate with a liquid scintillation counter. Glycine uptake in the presence of 10 μM ALX5407 was defined as non-specific uptake, and the value calculated by subtracting the amount of the non-specific uptake from the total uptake in the absence of 10 μM ALX5407 was defined as specific uptake. In addition, glycine uptake inhibitory activity (IC50 value) was calculated from an inhibition curve at the concentrations of each test substance ranging from 10^−9 to 10^−5 M. It should be noted that ALX5407 is an HCl salt of N-[(3R)-3-([1,1′-biphenyl]-4-yloxy)-3-(4-fluorophenyl)propyl]-N-methylglycine.

As usually defined, the IC50 is the concentration needed to halve the response being measured. Lower therefore signals greater potency in that assay. Regarding `O=C1N(Cc2cncc(Cl)c2)c2cccc(C(O)C(F)F)c2C1(F)F` (single isomer, unassigned) [Compound 120, 1-[(5-chloropyridin-3-yl)methyl]-4-(2,2-difluoro-1-hydroxyethyl)-3,3-difluoro-1,3-dihydro-2H-indol-2-one], the IC50 (glycine uptake inhibition) amounted to 57 nM. `O=C1N(Cc2ccc(F)cn2)c2cccc(C(O)C(F)F)c2C1(F)F` (single isomer, unassigned) [Compound 168, 4-(2,2-difluoro-1-hydroxyethyl)-3,3-difluoro-1-[(5-fluoropyridin-2-yl)methyl]-1,3-dihydro-2H-indol-2-one] came in with an IC50 of 280 nM. Take `O=C1N(Cc2cccc(Cl)n2)c2cccc(C(O)C(F)(F)F)c2C1(F)F` (single isomer, unassigned) [Compound 9, 1-[(6-chloropyridin-2-yl)methyl]-3,3-difluoro-4-(2,2,2-trifluoro-1-hydroxyethyl)-1,3-dihydro-2H-indol-2-one]: under “glycine uptake inhibition”, the IC50 came to 17 nM.

Turning to `N#Cc1cc(Cl)cnc1CN1C(=O)C(F)(F)c2c(C(O)C(F)F)cccc21` (single isomer, unassigned) [Compound 276, 5-chloro-2-{[4-(2,2-difluoro-1-hydroxyethyl)-3,3-difluoro-2-oxo-2,3-dihydro-1H-indol-1-yl]methyl}pyridine-3-carbonitrile], the IC50 was determined as 200 nM. With `C[C@H](O)c1cccc2c1C(F)(F)C(=O)N2Cc1ccc(Cl)nn1` [Compound 204, 1-[(6-chloropyridazin-3-yl)methyl]-3,3-difluoro-4-[(1S)-1-hydroxyethyl]-1,3-dihydro-2H-indol-2-one], half-maximal inhibition (IC50) was put at 110 nM. In turn, `O=C1N(Cc2cncc(C3CC3)c2)c2cccc(C(O)C(F)F)c2C1(F)F` (single isomer, unassigned) [Compound 179, 1-[(5-cyclopropylpyridin-3-yl)methyl]-4-(2,2-difluoro-1-hydroxyethyl)-3,3-difluoro-1,3-dihydro-2H-indol-2-one] showed a concentration for half-maximal inhibition (IC50) of 480 nM. Compound `C[C@H](O)c1cccc2c1C(F)(F)C(=O)N2Cc1ccc2ncccc2n1` [Compound 78, 3,3-difluoro-4-[(1S)-1-hydroxyethyl]-1-(1,5-naphthyridin-2-ylmethyl)-1,3-dihydro-2H-indol-2-one] had a half-maximal inhibitory concentration (IC50) (glycine uptake inhibition) of 320 nM. Still for that read-out and setting: the same measure for `C[C@H](O)c1cccc2c1C(F)(F)C(=O)N2Cc1cncc(F)c1` [Compound 63, 3,3-difluoro-1-[(5-fluoropyridin-3-yl)methyl]-4-[(1S)-1-hydroxyethyl]-1,3-dihydro-2H-indol-2-one]: 76 nM. As for `COc1cc(CN2C(=O)C(F)(F)c3c(C(O)C(F)F)cccc32)ccn1` (single isomer, unassigned) [Compound 165, 4-(2,2-difluoro-1-hydroxyethyl)-3,3-difluoro-1-[(2-methoxypyridin-4-yl)methyl]-1,3-dihydro-2H-indol-2-one], the IC50 is 48 nM. Compound `C[C@H](O)c1cccc2c1C(F)(F)C(=O)N2Cc1cc(C#N)ncc1F` [Compound 188, 4-({3,3-difluoro-4-[(1S)-1-hydroxyethyl]-2-oxo-2,3-dihydro-1H-indol-1-yl}methyl)-5-fluoropyridine-2-carbonitrile] displayed a half-inhibitory concentration (IC50) of 62 nM. `C[C@H](O)c1cccc2c1C(F)(F)C(=O)N2Cc1ccncc1` [Compound 64, 3,3-difluoro-4-[(1S)-1-hydroxyethyl]-1-(pyridin-4-ylmethyl)-1,3-dihydro-2H-indol-2-one] yielded an IC50 (glycine uptake inhibition) of 390 nM. For the compound `C[C@H](O)c1cccc2c1C(F)(F)C(=O)N2Cc1ccnc(C(F)F)c1` [Compound 117, 1-{[2-(difluoromethyl)pyridin-4-yl]methyl}-3,3-difluoro-4-[(1S)-1-hydroxyethyl]-1,3-dihydro-2H-indol-2-one], where the note is “glycine uptake inhibition”, half-maximal inhibition (IC50) was put at 31 nM.

Compound `C[C@@H](O)c1cccc2c1C(F)(F)C(=O)N2Cc1ccnc(C#N)c1` [Compound 38, 4-({3,3-difluoro-4-[(1R)-1-hydroxyethyl]-2-oxo-2,3-dihydro-1H-indol-1-yl}methyl)pyridine-2-carbonitrile] returned an IC50 (glycine uptake inhibition) of 5300 nM.

The compound `C[C@H](O)c1cccc2c1C(F)(F)C(=O)N2Cc1ccc2ccccc2n1` [Compound 77, 3,3-difluoro-4-[(1S)-1-hydroxyethyl]-1-(quinolin-2-ylmethyl)-1,3-dihydro-2H-indol-2-one] returned an IC50 (glycine uptake inhibition) of 37 nM. On the same count and under the same terms, the same measure for `O=C1N(Cc2cccc(Cl)n2)c2cccc(C3(O)CCC3)c2C1(F)F` [Compound 24, 1-[(6-chloropyridin-2-yl)methyl]-3,3-difluoro-4-(1-hydroxycyclobutyl)-1,3-dihydro-2H-indol-2-one]: 5900 nM; for `C[C@H](O)c1cccc2c1C(F)(F)C(=O)N2Cc1ccc(C#N)cn1` [Compound 113, 6-({3,3-difluoro-4-[(1S)-1-hydroxyethyl]-2-oxo-2,3-dihydro-1H-indol-1-yl}methyl)pyridine-3-carbonitrile]: 940 nM.

In turn, `C[C@@H](O)c1cccc2c1C(F)(F)C(=O)N2Cc1ccnc(F)c1` [Compound 43, 3,3-difluoro-1-[(2-fluoropyridin-4-yl)methyl]4-[(1R)-1-hydroxyethyl]-1,3-dihydro-2H-indol-2-one] returned a concentration for half-maximal inhibition (IC50) (glycine uptake inhibition) of 4400 nM. The compound `O=C1N(Cc2ccnc(-n3nccn3)c2)c2cccc(C(O)C(F)F)c2C1(F)F` (single isomer, unassigned) [Compound 147, 4-(2,2-difluoro-1-hydroxyethyl)-3,3-difluoro-1-{[2-(2H-1,2,3-triazol-2-yl)pyridin-4-yl]methyl}-1,3-dihydro-2H-indol-2-one] gave a 50% inhibitory concentration (IC50) (glycine uptake inhibition) of 360 nM.

Compound `C[C@H](O)c1cccc2c1C(F)(F)C(=O)N2Cc1ncccc1C(F)(F)F` [Compound 227, 3,3-difluoro-4-[(1S)-1-hydroxyethyl]-1 {[3-(trifluoromethyl)pyridin-2-yl]methyl)-1,3-dihydro-2H-indol-2-one] yielded a 50% inhibitory concentration (IC50) of 380 nM. `C[C@H](O)c1cccc2c1C(F)(F)C(=O)N2Cc1ccc(C#N)nc1` [Compound 201, 5-({3,3-difluoro-4-[(1S)-1-hydroxyethyl]-2-oxo-2,3-dihydro-1-indol-1-yl}methyl)pyridine-2-carbonitrile] gave an IC50 of 830 nM. Take `C[C@H](O)c1cccc2c1C(F)(F)C(=O)N2Cc1cc2ccoc2cn1` [Compound 125, 3,3-difluoro-1-(furo[2,3-c]pyridin-5-ylmethyl)-4-[(1S)-1-hydroxyethyl]-1,3-dihydro-2H-indol-2-one]: under “glycine uptake inhibition”, the IC50 came out at 130 nM. With `C[C@H](O)c1cccc2c1C(F)(F)C(=O)N2Cc1ccc(Br)nc1` [Compound 190, 1-[(6-bromopyridin-3-yl)methyl]-3,3-difluoro-4-[(1S)-1-hydroxyethyl]-1,3-dehydro-2H-indol-2-one], the IC50 stood at 51 nM.

In the case of `O=C1N(Cc2ccc(F)nc2)c2cccc([C@@H](O)C(F)(F)F)c2C1(F)F` [Compound 155, 3,3-difluoro-1-[(6-fluoropyridin-3-yl)methyl]-4-[(1R)-2,2,2-trifluoro-1-hydroxyethyl]-1,3-dihydro-2H-indol-2-one], the half-maximal inhibitory concentration (IC50) (glycine uptake inhibition) is 180 nM. Take `O=C1N(Cc2ccnc(OC(F)F)c2)c2cccc(C(O)C(F)F)c2C1(F)F` (single isomer, unassigned) [Compound 218, 4-(2,2-difluoro-1-hydroxyethyl)-1-{[2-(difluoromethoxy)pyridin-4-yl]methyl}-3,3-difluoro-1,3-dihydro-2H-indol-2-one]: the IC50 came out at 10 nM. Under “glycine uptake inhibition”, `O=C1N(Cc2ccc(F)nc2)c2cccc(C(O)C(F)F)c2C1(F)F` (single isomer, unassigned) [Compound 156, 4-(2,2-difluoro-1-hydroxyethyl)-3,3-difluoro-1-[(6-fluoropyridin-3-yl)methyl]-1,3-dihydro-2H-indol-2-one] displayed a half-inhibitory concentration (IC50) of 110 nM. On the same count and under the same terms, the same measure for `C[C@H](O)c1cccc2c1C(F)(F)C(=O)N2Cc1nnc2ccccc2n1` [Compound 105, 1-(1,2,4-benzotriazin-3-ylmethyl)-3,3-difluoro-4-[(1S)-1-hydroxyethyl]-1,3-dihydro-2H-indol-2-one]: 1000 nM.

The record behind these values is patent US20160159814A1, “GLYCINE TRANSPORTER INHIBITOR” (TAISHO PHARMACEUTICAL CO., LTD., priority 2013, published 2016).
